Experimental data: the NIST ThermoML archive (doi:10.1016/j.tca.2017.12.013)

Assay: molar heat capacity at constant pressure
Conditions: 101.33 kPa, DSC

[Ag+].[Ag+].[S-2] [silver sulfide]
Conditions | molar heat capacity at constant pressure [J/K/mol]
299.71 K, Crystal 3 | 73.92
300.71 K, Crystal 3 | 74.02
301.71 K, Crystal 3 | 74.12
302.71 K, Crystal 3 | 74.21
303.71 K, Crystal 3 | 74.31
304.71 K, Crystal 3 | 74.4
305.71 K, Crystal 3 | 74.46
306.71 K, Crystal 3 | 74.53
307.71 K, Crystal 3 | 74.62
308.71 K, Crystal 3 | 74.69
309.71 K, Crystal 3 | 74.77
310.71 K, Crystal 3 | 74.85
311.71 K, Crystal 3 | 74.92
312.71 K, Crystal 3 | 75.14
313.71 K, Crystal 3 | 75.21
314.71 K, Crystal 3 | 75.29
315.71 K, Crystal 3 | 75.36
316.71 K, Crystal 3 | 75.42
317.71 K, Crystal 3 | 75.49
318.71 K, Crystal 3 | 75.53
319.71 K, Crystal 3 | 75.58
320.71 K, Crystal 3 | 75.65
321.71 K, Crystal 3 | 75.71
322.71 K, Crystal 3 | 75.78
323.71 K, Crystal 3 | 75.84
324.71 K, Crystal 3 | 75.9
325.71 K, Crystal 3 | 75.97
326.71 K, Crystal 3 | 76.03
327.71 K, Crystal 3 | 76.09
328.71 K, Crystal 3 | 76.14
329.71 K, Crystal 3 | 76.2
330.71 K, Crystal 3 | 76.26
331.71 K, Crystal 3 | 76.31
332.71 K, Crystal 3 | 76.37
333.71 K, Crystal 3 | 76.42
334.71 K, Crystal 3 | 76.48
335.71 K, Crystal 3 | 76.53
336.71 K, Crystal 3 | 76.58
337.71 K, Crystal 3 | 76.63
338.71 K, Crystal 3 | 76.68
339.71 K, Crystal 3 | 76.74
340.71 K, Crystal 3 | 76.79
341.71 K, Crystal 3 | 76.84
342.71 K, Crystal 3 | 76.89
343.71 K, Crystal 3 | 76.93
344.71 K, Crystal 3 | 76.98
345.71 K, Crystal 3 | 77.03
346.71 K, Crystal 3 | 77.08
347.71 K, Crystal 3 | 77.13
348.71 K, Crystal 3 | 77.18
349.71 K, Crystal 3 | 77.22
350.71 K, Crystal 3 | 77.27
351.71 K, Crystal 3 | 77.32
352.71 K, Crystal 3 | 77.37
353.71 K, Crystal 3 | 77.42
354.71 K, Crystal 3 | 77.46
355.71 K, Crystal 3 | 77.51
356.71 K, Crystal 3 | 77.56
357.71 K, Crystal 3 | 77.61
358.71 K, Crystal 3 | 77.66
359.71 K, Crystal 3 | 77.71
360.71 K, Crystal 3 | 77.76
361.71 K, Crystal 3 | 77.81
362.71 K, Crystal 3 | 77.86
363.71 K, Crystal 3 | 77.91
364.71 K, Crystal 3 | 77.96
365.71 K, Crystal 3 | 78.01
366.71 K, Crystal 3 | 78.07
367.71 K, Crystal 3 | 78.12
368.71 K, Crystal 3 | 78.17
369.71 K, Crystal 3 | 78.23
370.71 K, Crystal 3 | 78.29
371.71 K, Crystal 3 | 78.34
372.71 K, Crystal 3 | 78.4
373.71 K, Crystal 3 | 78.46
374.71 K, Crystal 3 | 78.52
375.71 K, Crystal 3 | 78.58
376.71 K, Crystal 3 | 78.64
377.71 K, Crystal 3 | 78.7
378.71 K, Crystal 3 | 78.76
379.71 K, Crystal 3 | 78.83
380.71 K, Crystal 3 | 78.89
381.71 K, Crystal 3 | 78.96
382.71 K, Crystal 3 | 79.03
383.71 K, Crystal 3 | 79.1
384.71 K, Crystal 3 | 79.17
385.71 K, Crystal 3 | 79.24
386.71 K, Crystal 3 | 79.31
387.71 K, Crystal 3 | 79.39
388.71 K, Crystal 3 | 79.46
389.71 K, Crystal 3 | 79.54
390.71 K, Crystal 3 | 79.62
391.71 K, Crystal 3 | 79.7
392.71 K, Crystal 3 | 79.79
393.71 K, Crystal 3 | 79.87
394.71 K, Crystal 3 | 79.96
395.71 K, Crystal 3 | 80.04
396.71 K, Crystal 3 | 80.13
397.71 K, Crystal 3 | 80.23
398.71 K, Crystal 3 | 80.32
399.71 K, Crystal 3 | 80.41
400.71 K, Crystal 3 | 80.5
401.71 K, Crystal 3 | 80.6
402.71 K, Crystal 3 | 80.69
403.71 K, Crystal 3 | 80.78
404.71 K, Crystal 3 | 80.88
405.71 K, Crystal 3 | 80.98
406.71 K, Crystal 3 | 81.09
407.71 K, Crystal 3 | 81.19
408.71 K, Crystal 3 | 81.3
409.71 K, Crystal 3 | 81.41
410.71 K, Crystal 3 | 81.52
411.71 K, Crystal 3 | 81.63
412.71 K, Crystal 3 | 81.75
413.71 K, Crystal 3 | 81.87
414.71 K, Crystal 3 | 81.99
415.71 K, Crystal 3 | 82.11
416.71 K, Crystal 3 | 82.24
417.71 K, Crystal 3 | 82.37
418.71 K, Crystal 3 | 82.5
419.71 K, Crystal 3 | 82.64
420.71 K, Crystal 3 | 82.77
421.71 K, Crystal 3 | 82.91
422.71 K, Crystal 3 | 83.06
423.71 K, Crystal 3 | 83.2
424.71 K, Crystal 3 | 83.35
425.71 K, Crystal 3 | 83.51
426.71 K, Crystal 3 | 83.66
427.71 K, Crystal 3 | 83.82
428.71 K, Crystal 3 | 83.98
429.71 K, Crystal 3 | 84.15
430.71 K, Crystal 3 | 84.32
431.71 K, Crystal 3 | 84.49
432.71 K, Crystal 3 | 84.66
433.71 K, Crystal 3 | 84.84
434.71 K, Crystal 3 | 85.01
435.71 K, Crystal 3 | 85.19
436.71 K, Crystal 3 | 85.36
437.71 K, Crystal 3 | 85.54
438.71 K, Crystal 3 | 85.72
439.71 K, Crystal 3 | 85.91
440.71 K, Crystal 3 | 86.2
441.71 K, Crystal 3 | 86.6
442.71 K, Crystal 3 | 87.1
443.71 K, Crystal 3 | 87.6
444.71 K, Crystal 3 | 88.38
446.71 K, Crystal 3 | 90.5
447.71 K, Crystal 3 | 92.95
448.71 K, Crystal 3 | 93.65
449.71 K, Crystal 3 | 94.94
461.57 K, Crystal 2 | 90.56
462.57 K, Crystal 2 | 90.49
463.57 K, Crystal 2 | 90.42
464.57 K, Crystal 2 | 90.35
465.57 K, Crystal 2 | 90.28
466.57 K, Crystal 2 | 90.21
467.57 K, Crystal 2 | 90.13
468.57 K, Crystal 2 | 90.06
469.57 K, Crystal 2 | 89.98
470.57 K, Crystal 2 | 89.9
471.57 K, Crystal 2 | 89.82
472.57 K, Crystal 2 | 89.75
473.57 K, Crystal 2 | 89.67
474.57 K, Crystal 2 | 89.59
475.57 K, Crystal 2 | 89.51
476.57 K, Crystal 2 | 89.43
477.57 K, Crystal 2 | 89.35
478.57 K, Crystal 2 | 89.28
479.57 K, Crystal 2 | 89.2
480.57 K, Crystal 2 | 89.12
481.57 K, Crystal 2 | 89.05
482.57 K, Crystal 2 | 88.97
483.57 K, Crystal 2 | 88.9
484.57 K, Crystal 2 | 88.83
485.57 K, Crystal 2 | 88.76
486.57 K, Crystal 2 | 88.69
487.57 K, Crystal 2 | 88.62
488.57 K, Crystal 2 | 88.55
489.57 K, Crystal 2 | 88.48
490.57 K, Crystal 2 | 88.42
491.57 K, Crystal 2 | 88.35
492.57 K, Crystal 2 | 88.29
493.57 K, Crystal 2 | 88.23
494.57 K, Crystal 2 | 88.17
495.57 K, Crystal 2 | 88.11
496.57 K, Crystal 2 | 88.06
497.57 K, Crystal 2 | 88
498.57 K, Crystal 2 | 87.95
499.57 K, Crystal 2 | 87.9
500.57 K, Crystal 2 | 87.85
501.57 K, Crystal 2 | 87.8
502.57 K, Crystal 2 | 87.76
503.57 K, Crystal 2 | 87.71
504.57 K, Crystal 2 | 87.67
505.57 K, Crystal 2 | 87.62
506.57 K, Crystal 2 | 87.58
507.57 K, Crystal 2 | 87.54
508.57 K, Crystal 2 | 87.54
509.57 K, Crystal 2 | 87.54
510.57 K, Crystal 2 | 87.54
511.57 K, Crystal 2 | 87.57
512.57 K, Crystal 2 | 87.59
513.57 K, Crystal 2 | 87.61
514.57 K, Crystal 2 | 87.61
515.57 K, Crystal 2 | 87.61
516.57 K, Crystal 2 | 87.62
517.57 K, Crystal 2 | 87.62
518.57 K, Crystal 2 | 87.62
519.57 K, Crystal 2 | 87.64
520.57 K, Crystal 2 | 87.64
521.82 K, Crystal 2 | 87.58
522.82 K, Crystal 2 | 87.56
523.82 K, Crystal 2 | 87.54
524.82 K, Crystal 2 | 87.52
525.82 K, Crystal 2 | 87.5
526.82 K, Crystal 2 | 87.48
527.82 K, Crystal 2 | 87.46
528.82 K, Crystal 2 | 87.45
529.82 K, Crystal 2 | 87.43
530.82 K, Crystal 2 | 87.42
531.82 K, Crystal 2 | 87.4
532.82 K, Crystal 2 | 87.39
533.82 K, Crystal 2 | 87.38
534.82 K, Crystal 2 | 87.37
535.82 K, Crystal 2 | 87.36
536.82 K, Crystal 2 | 87.35
537.82 K, Crystal 2 | 87.34
538.82 K, Crystal 2 | 87.33
539.82 K, Crystal 2 | 87.32
540.82 K, Crystal 2 | 87.31
541.82 K, Crystal 2 | 87.3
542.82 K, Crystal 2 | 87.29
543.82 K, Crystal 2 | 87.28
544.82 K, Crystal 2 | 87.27
545.82 K, Crystal 2 | 87.26
546.82 K, Crystal 2 | 87.26
547.82 K, Crystal 2 | 87.25
548.82 K, Crystal 2 | 87.24
549.82 K, Crystal 2 | 87.23
550.82 K, Crystal 2 | 87.22
551.82 K, Crystal 2 | 87.22
552.82 K, Crystal 2 | 87.21
553.82 K, Crystal 2 | 87.2
554.82 K, Crystal 2 | 87.19
555.82 K, Crystal 2 | 87.18
556.82 K, Crystal 2 | 87.17
557.82 K, Crystal 2 | 87.17
558.82 K, Crystal 2 | 87.16
559.82 K, Crystal 2 | 87.15
560.82 K, Crystal 2 | 87.14
561.82 K, Crystal 2 | 87.13
562.82 K, Crystal 2 | 87.12
563.82 K, Crystal 2 | 87.11
564.82 K, Crystal 2 | 87.1
565.82 K, Crystal 2 | 87.09
566.82 K, Crystal 2 | 87.07
567.82 K, Crystal 2 | 87.06
568.82 K, Crystal 2 | 87.05
569.82 K, Crystal 2 | 87.04
570.82 K, Crystal 2 | 87.02
571.82 K, Crystal 2 | 87.01
572.82 K, Crystal 2 | 87
573.82 K, Crystal 2 | 86.98
574.82 K, Crystal 2 | 86.97
575.82 K, Crystal 2 | 86.95
576.82 K, Crystal 2 | 86.94
577.82 K, Crystal 2 | 86.92
578.82 K, Crystal 2 | 86.91
579.82 K, Crystal 2 | 86.89
580.82 K, Crystal 2 | 86.87
581.82 K, Crystal 2 | 86.85
582.82 K, Crystal 2 | 86.83
583.82 K, Crystal 2 | 86.82
584.82 K, Crystal 2 | 86.8
585.82 K, Crystal 2 | 86.78
586.82 K, Crystal 2 | 86.76
587.82 K, Crystal 2 | 86.74
588.82 K, Crystal 2 | 86.72
589.82 K, Crystal 2 | 86.7
590.82 K, Crystal 2 | 86.67
591.82 K, Crystal 2 | 86.65
592.82 K, Crystal 2 | 86.63
593.82 K, Crystal 2 | 86.61
594.82 K, Crystal 2 | 86.61
595.82 K, Crystal 2 | 86.63
596.82 K, Crystal 2 | 86.62
597.82 K, Crystal 2 | 86.62
598.82 K, Crystal 2 | 86.6
599.82 K, Crystal 2 | 86.6
600.82 K, Crystal 2 | 86.58
601.82 K, Crystal 2 | 86.55
602.82 K, Crystal 2 | 86.53
603.82 K, Crystal 2 | 86.5
604.82 K, Crystal 2 | 86.48
605.82 K, Crystal 2 | 86.45
606.82 K, Crystal 2 | 86.43
607.82 K, Crystal 2 | 86.4
608.82 K, Crystal 2 | 86.38
609.82 K, Crystal 2 | 86.35
610.82 K, Crystal 2 | 86.33
611.82 K, Crystal 2 | 86.3
612.82 K, Crystal 2 | 86.28
613.82 K, Crystal 2 | 86.25
614.82 K, Crystal 2 | 86.23
615.82 K, Crystal 2 | 86.2
616.82 K, Crystal 2 | 86.18
